As to `*C(=O)Nc1ccc(Oc2ccc(C(C)(C)c3ccc(Oc4ccc(NC(=O)c5ccc6c(c5)C(=O)N(c5ccc(-c7sc(-c8ccc(N9C(=O)c%10ccc(*)cc%10C9=O)cc8)c(-c8ccccc8)c7-c7ccccc7)cc5)C6=O)cc4)cc3)cc2)cc1` (repeat unit), the glass transition temperature worked out at 287.00 °C.
The same measure for `*C(=O)c1ccc2c(c1)C(=O)N(c1ccc(Oc3ccc(S(=O)(=O)c4ccc(C)cc4)cc3)c(N3C(=O)c4ccc(*)cc4C3=O)c1)C2=O` (repeat unit): 293.00 °C; for `*Oc1c(C(C)C)cc(C(=O)c2cccc(C(=O)c3ccc(*)cc3)c2)cc1C(C)C` (repeat unit): 132.00 °C.
`*Oc1ccc(-c2ccc(-c3ccc(Oc4ccc(C(=O)c5cccc(C(=O)c6ccc(*)cc6)c5)cc4)cc3)cc2)cc1` (repeat unit) showed a glass transition temperature of 174.00 °C.
In turn, `*Oc1ccc(-c2ccc(Oc3ccc(Oc4ccc(S(=O)(=O)c5ccc(Oc6ccc(*)cc6)cc5)cc4)cc3)c3ccccc23)c2ccccc12` (repeat unit) showed a glass transition temperature of 214.00 °C.
The same measure for `*Oc1ccc(C(c2ccc(Oc3ccc(C(=O)c4cccc(-c5cccc(C(=O)c6ccc(*)cc6)c5)c4)cc3)cc2)(C(F)(F)F)C(F)(F)F)cc1` (repeat unit): 159.00 °C; for `*Oc1ccc(C2(c3ccc(Oc4ccc(C(=O)c5cccc(-c6cccc(C(=O)c7ccc(*)cc7)c6)c5)cc4)cc3)c3ccccc3-c3ccccc32)cc1` (repeat unit): 212.00 °C; for `*Oc1ccc(N(c2ccccc2)c2ccc(-c3ccc(N(c4ccccc4)c4ccc(*)cc4)cc3)cc2)cc1` (repeat unit): 218.00 °C.
For `*Oc1ccc(NC(=O)c2cccc(C(=O)Nc3ccc(Oc4ccc(C(C)(C)c5cccc(C(C)(C)c6ccc(*)cc6)c5)cc4)cc3)c2)cc1` (repeat unit), the glass transition temperature turned out to be 180.00 °C.
`*Oc1ccc(Nc2ccc(S(=O)(=O)c3ccc(Nc4ccc(Oc5ccc(C(C)(C)c6ccc(*)cc6)cc5)cc4)cc3)cc2)cc1` (repeat unit) returned a glass transition temperature of 145.00 °C.
The value for `*Oc1ccc(Oc2ccc(Oc3ccc(S(=O)(=O)c4ccc(*)cc4)cc3)cc2)cc1` (repeat unit) was 192.00 °C.
The value for `*Oc1ccc(Oc2ccc(S(=O)(=O)c3ccc(*)cc3)cc2)cc1` (repeat unit) was 210.00 °C; that for `*Oc1ccc(Oc2ccc(S(=O)(=O)c3ccc(-c4ccc(-c5ccc(S(=O)(=O)c6ccc(*)cc6)cc5)cc4)cc3)cc2)cc1` (repeat unit) was 259.00 °C; that for `*Oc1ccc(Oc2ccc(S(=O)c3ccc(Oc4ccc(Oc5cccc(*)n5)cc4)cc3)cc2)cc1` (repeat unit) was 138.00 °C.
Molecule `*Oc1ccc(P(C)(=O)c2ccc(Oc3ccc(C(C)(C)c4ccc(*)cc4)cc3)cc2)cc1` (repeat unit) had a glass transition temperature of 192.00 °C.
For the molecule `*Oc1ccc(S(=O)(=O)c2ccc(*)cc2)cc1` (repeat unit), the glass transition temperature was 225.00 °C.
The value for `*Oc1ccc(S(=O)(=O)c2ccc(-c3ccc(-c4ccc(S(=O)(=O)c5ccc(*)cc5)cc4)cc3)cc2)cc1` (repeat unit) was 311.00 °C; that for `*Oc1ccc(S(=O)(=O)c2ccc(Oc3ccc(/C=C4\CCC/C(=C\c5ccc(Oc6ccc(S(=O)(=O)c7ccc(Oc8ccc(C(C)(C)c9ccc(*)cc9)cc8)cc7)cc6)cc5)C4=O)cc3)cc2)cc1` (repeat unit) was 194.00 °C.
Molecule `*Oc1ccc(S(=O)(=O)c2ccc(Oc3ccc(C(C)(C)c4ccc(*)c(N)c4)cc3N)cc2)c(N)c1` (repeat unit) registered a glass transition temperature of 237.10 °C.
`*Oc1ccc(S(=O)(=O)c2ccc(Oc3ccc(C(C)(C)c4ccc(*)c(N)c4)cc3N)cc2)cc1` (repeat unit) yielded a glass transition temperature of 230.40 °C.
As to `*Oc1ccc(S(=O)(=O)c2ccc(Oc3ccc(C(C)(CCC(=O)O)c4ccc(*)cc4)cc3)cc2)cc1` (repeat unit), the glass transition temperature was 163.00 °C.
The same measure for `*Oc1ccc(S(=O)(=O)c2ccc(Oc3ccc(C(C)(c4ccccc4)c4ccc(*)cc4)cc3)cc2)cc1` (repeat unit): 207.00 °C; for `*Oc1ccc(S(=O)(=O)c2ccc(Oc3ccc(C(c4ccc(*)c(Br)c4)(C(F)(F)F)C(F)(F)F)cc3Br)cc2)cc1` (repeat unit): 197.50 °C.
Molecule `*Oc1ccc(S(=O)(=O)c2ccc(Oc3ccc(C(c4ccc(*)c([Si](C)(C)C)c4)(C(F)(F)F)C(F)(F)F)cc3[Si](C)(C)C)cc2)cc1` (repeat unit) had a glass transition temperature of 168.60 °C.
In turn, `*Oc1ccc(S(=O)(=O)c2ccc(Oc3ccc(C(c4ccc(*)cc4)(C(F)(F)F)C(F)(F)F)cc3)cc2C(O)(C(F)(F)F)C(F)(F)F)c(C(O)(C(F)(F)F)C(F)(F)F)c1` (repeat unit) showed a glass transition temperature of 148.00 °C.
With `*Oc1ccc(S(=O)(=O)c2ccc(Oc3ccc(C(c4ccccc4)(c4ccccc4)c4ccc(*)cc4)cc3)cc2)cc1` (repeat unit), the glass transition temperature worked out at 230.00 °C.
In turn, `*Oc1ccc(S(=O)(=O)c2ccc(Oc3ccc(C4(c5ccc(*)cc5)C5CC6CC(C5)CC4C6)cc3)cc2)cc1` (repeat unit) yielded a glass transition temperature of 297.00 °C.
`*Oc1ccc(S(=O)(=O)c2ccc(Oc3ccc(C4(c5ccc(*)cc5)CCCC4)cc3)cc2)cc1` (repeat unit) had a glass transition temperature of 230.00 °C.
Take `*Oc1ccc(S(=O)(=O)c2ccc(Oc3ccc(Cc4ccc(*)cc4)cc3)cc2)cc1` (repeat unit): the glass transition temperature worked out at 189.6 °C.
In turn, `*Oc1ccc(S(=O)(=O)c2ccc(Oc3ccc(Sc4ccc(*)cc4)cc3)cc2)cc1` (repeat unit) returned a glass transition temperature of 175.00 °C.
In the case of `*c1ccc(-c2ccc(-c3ccc(-c4ccc(-c5ccc6c(c5)C(=O)N(c5ccc(Oc7ccc(C(C)(C)c8ccc(Oc9ccc(N%10C(=O)c%11ccc(*)cc%11C%10=O)cc9)cc8)cc7)cc5)C6=O)cc4)cc3)cc2)cc1` (repeat unit), the glass transition temperature was 236.00 °C.
Turning to `*c1ccc(-c2nc3ccc(Oc4ccc(Oc5ccc(P(=O)(c6ccccc6)c6ccc(Oc7ccc(Oc8ccc9nc(*)c(-c%10ccccc%10)nc9c8)cc7)cc6)cc5)cc4)cc3nc2-c2ccccc2)cc1` (repeat unit), the glass transition temperature turned out to be 248.00 °C.
In turn, `*c1ccc(C(=O)c2ccc(-n3nc(-c4ccccc4)c4cc(Oc5ccc(C(C)(C)c6ccc(Oc7ccc8c(-c9ccccc9)nn(*)c(=O)c8c7)cc6)cc5)ccc4c3=O)cc2)cc1` (repeat unit) gave a glass transition temperature of 195.00 °C.
The value for `*c1ccc(N2C(=O)c3ccc(Oc4ccc(C(C)(C)c5cccc(Oc6ccc7c(c6)C(=O)N(*)C7=O)c5)cc4)cc3C2=O)cc1` (repeat unit) was 268.00 °C.
Molecule `*c1ccc(Oc2ccc(C(=O)c3cccc(C(=O)c4ccc(Oc5ccc(-c6c7c(c(*)c8ccccc68)C(=O)N(c6ccc(F)cc6)C7=O)cc5)cc4)c3)cc2)cc1` (repeat unit) gave a glass transition temperature of 243.00 °C.
Molecule `*c1ccc(Oc2ccc(C(=O)c3cccc(C(=O)c4ccc(Oc5ccc(-c6nc(-c7ccccc7)[nH]c6*)cc5)cc4)c3)cc2)cc1` (repeat unit) gave a glass transition temperature of 230.00 °C.
In turn, `*c1ccc(Oc2ccc(C(C)(C)c3ccc(Oc4ccc(N5C(=O)CC(=O)N(*)C5=S)cc4)cc3)cc2)cc1` (repeat unit) had a glass transition temperature of 150.00 °C.
`*c1ccc(Oc2ccc(C(C)(C)c3ccc(Oc4ccc(N5C(=O)c6ccc(Oc7ccc8c(c7)C(=O)N(*)C8=O)cc6C5=O)cc4)cc3)cc2)cc1` (repeat unit) returned a glass transition temperature of 227.50 °C.
Turning to `*c1ccc(Oc2ccc(C(c3ccc(Oc4ccc(-c5nnc(*)c6c(-c7ccc(F)cc7)c(-c7ccc(F)cc7)c(-c7ccc(F)cc7)c(-c7ccc(F)cc7)c56)cc4)cc3)(C(F)(F)F)C(F)(F)F)cc2)cc1` (repeat unit), the glass transition temperature turned out to be 288.00 °C.
Take `*c1ccc(Oc2ccc(C(c3ccc(Oc4ccc(-c5nnc(*)n5-c5ccc(S(=O)(=O)c6ccccc6)cc5)cc4)cc3)(C(F)(F)F)C(F)(F)F)cc2)cc1` (repeat unit): the glass transition temperature amounted to 211.00 °C.
In turn, `*c1ccc(Oc2ccc(C(c3ccc(Oc4ccc(N5C(=O)c6ccc(Oc7ccc(C8(c9ccc(Oc%10ccc%11c(c%10)C(=O)N(*)C%11=O)cc9)CCC(C(C)(C)C)CC8)cc7)cc6C5=O)cc4)cc3)(C(F)(F)F)C(F)(F)F)cc2)cc1` (repeat unit) had a glass transition temperature of 227.00 °C.
The molecule `*c1ccc(Oc2ccc(C3(c4ccc(Oc5ccc(-c6nc(-c7ccccn7)nnc6*)cc5)cc4)c4ccccc4-c4ccccc43)cc2)cc1` (repeat unit) registered a glass transition temperature of 277.00 °C.
The value for `*c1ccc(Oc2ccc(C3(c4ccc(Oc5ccc(N6C(=O)c7ccc(Oc8ccc(C9(c%10ccc(Oc%11ccc%12c(c%11)C(=O)N(*)C%12=O)cc%10)CCCCCCCCCCC9)cc8)cc7C6=O)cc5)cc4)CCC(C(C)(C)C)CC3)cc2)cc1` (repeat unit) was 254.00 °C.
For `*c1ccc(Oc2ccc(N3C(=O)CC4C(CC5C(=O)N(*)C(=O)C54)C3=O)cc2)cc1` (repeat unit), the glass transition temperature was 350.00 °C.
In turn, `*c1ccc(Oc2ccc(Oc3ccc(-n4c(=O)c5cc6c(=O)n(*)c(=O)c6cc5c4=O)cc3)cc2)c(C(F)(F)F)c1` (repeat unit) yielded a glass transition temperature of 272.20 °C.
The value for `*c1ccc(Oc2ccc(Oc3ccc(-n4c(=O)c5cc6c(=O)n(*)c(=O)c6cc5c4=O)cc3)cc2-c2ccccc2)cc1` (repeat unit) was 271.00 °C; that for `*c1ccc(Oc2ccc(S(=O)(=O)c3ccc(Oc4ccc(C5(*)OC(=O)c6ccccc65)cc4C)cc3)cc2)c(C)c1` (repeat unit) was 245.00 °C.
Consider `*c1ccc(Oc2ccc(Sc3ccc(Oc4ccc(-c5nc(*)nc(-c6ccccc6)n5)cc4)cc3)cc2)cc1` (repeat unit), for which the glass transition temperature is 211.00 °C.
`*c1cccc(C(=O)Nc2ccc(Oc3ccc(C(C)(C)c4ccc(Oc5ccc(NC(=O)c6cccc(N7C(=O)c8ccc(-c9cccc%10c9C(=O)N(*)C%10=O)cc8C7=O)c6)cc5)cc4)cc3)cc2)c1` (repeat unit): the glass transition temperature amounted to 261.00 °C.
In turn, `*c1cccc(C(=O)c2cccc(-n3c(=O)c4cc5c(=O)n(*)c(=O)c5cc4c3=O)c2)c1` (repeat unit) registered a glass transition temperature of 321.00 °C.

(Values after the PolyMetriX glass transition set.)
